Experimental findings from patent US20250332173A1, “COMPOUNDS AND METHODS FOR MODULATING NUCLEIC ACID SPLICING” (REMIX THERAPEUTICS INC., priority 2021, published 2025) are described below.

One assay relates to HTT mRNA. In words: RT-qPCR splicing assay, HTT canonical junction (CJ) and alternative junction (AJ) mRNA. It counts as cell-based, human. The conditions noted are these: Homo sapiens; for AC50: increase in HTT alternative junction (AJ) mRNA, read-out: HTT AJ AC50. Put shortly: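 A673 or K562 cells were treated for 24 h at 37 °C with an 11-point 3-fold compound dilution series (top final concentration 10 uM, DMSO ≤0.25%). After lysis, one-step TaqMan RT-qPCR quantified junction transcripts, normalized to PPIA for A673 or to GAPDH/GUSB for K562.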

In the next assay the test system is HTT. In words: HiBiT protein abundance assay, HTT HiBiT K562 cell line. The format is cell-based, human. The conditions noted are these: HiBiT K562 cell line, 24 hours, top dose 10 μM; read-out: Effect on protein abundance, HTT (IC50 category). Put shortly:
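Endogenous targets in K562 knock-in lines carried a HiBiT tag and were treated for 24 h at 37 °C with 10-point 3-fold dilutions (top 10 μM final, DMSO ≤0.25%). Abundance was read as lytic Nano-Glo HiBiT luminescence. IC50 came from a four-parameter logistic fit of normalized response.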

Setting [1] is: decrease in HTT canonical junction (CJ) mRNA, RT-qPCR, read-out: HTT CJ IC50.
[2] abbreviates: Table 5 panel, canonical junction qPCR, compound concentration having 50% response in CJ decrease, read-out: HTT IC50 (decrease in CJ mRNA levels).

pIC50: −log10 of the molar value. Like-named read-outs stand apart in the source and are kept apart here.

On to `Cc1cn2cc(-c3ccc4c(=O)n(C5CCN[C@@H](C)C5)cnc4c3)cc(F)c2n1` (stereo partly shown) [Compound 294], for which the pIC50 with HTT mRNA (setting [1]) was 5.00 to 6.00; with HTT mRNA (setting [2]), 5.00 to 6.00; with HTT, 6.00 to 7.00. In addition, in the assay with HTT mRNA (RT-qPCR), the AC50 lay within 1000 to 10000 nM.

With `Cc1cn2cc(-c3ccc4c(=O)n([C@@H]5CCN[C@H](C)C5)cnc4c3)cc(F)c2n1` [Compound 295], the pIC50 in the assay on HTT mRNA (setting [1]), in the assay with HTT mRNA (setting [2]) and in the assay on HTT was 5.00 to 6.00 in each case. Further, the AC50 in the assay on HTT mRNA (RT-qPCR) fell in the range of 1000 to 10000 nM.

In the case of `Cc1cn2cc(-c3ccc4c(=O)n([C@H]5CCN[C@H](C)C5)cnc4c3)cc(F)c2n1` [Compound 296], the pIC50 with HTT mRNA (setting [1]), in the assay with HTT mRNA (setting [2]) and in the assay on HTT was 6.00 to 7.00 in each case. Besides, the AC50 in the assay with HTT mRNA (RT-qPCR) lay in the range of 100 to 1000 nM.

With `Cc1cn2cc(-c3ccc4c(=O)n(C5CCNCC5)cnc4c3)ncc2n1` [Compound 297], the pIC50 in the assay with HTT mRNA (setting [1]), with HTT mRNA (setting [2]) and in the assay with HTT was 5.00 to 6.00 each time. In the assay with HTT mRNA (RT-qPCR), the AC50 was in the range of 1000 to 10000 nM.

As for `Cc1cn2nc(-c3ccc4c(=O)n(C5CCNCC5)cnc4c3)cc2c(C)n1` [Compound 298], the pIC50 with HTT mRNA (setting [1]), in the assay with HTT mRNA (setting [2]) and in the assay on HTT was 6.00 to 7.00 throughout. Moreover, the AC50 in the assay on HTT mRNA (RT-qPCR) is 100 to 1000 nM.

Regarding `CN1CCC(n2cnc3cc(-c4cn[nH]c4)ccc3c2=O)CC1` [Compound 299], the pIC50 with HTT mRNA (setting [1]), with HTT mRNA (setting [2]) and in the assay on HTT was under 5.00 in each case. The half-maximal activity concentration (AC50) with HTT mRNA (RT-qPCR) was over 10000 nM.

As to `Cc1nc2c(F)cc(-c3ccc4c(=O)n(C5CCN(C)CC5)cnc4c3)cc2o1` [Compound 300], the pIC50 in the assay on HTT mRNA (setting [1]) is 5.00 to 6.00; with HTT mRNA (setting [2]) it was 6.00 to 7.00; in the assay with HTT, 6.00 to 7.00. Further, the AC50 with HTT mRNA (RT-qPCR) was 100 to 1000 nM.

Consider `Cc1nc2c(F)cc(-c3ccc4c(=O)n(C5CCN(C)CC5)cnc4c3)cc2s1` [Compound 301], for which the pIC50 in the assay with HTT mRNA (setting [1]), in the assay on HTT mRNA (setting [2]) and in the assay on HTT was 5.00 to 6.00 in each case. For the same compound, in the assay with HTT mRNA (RT-qPCR), the half-maximal activity concentration (AC50) was in the range of 1000 to 10000 nM.

Consider `Cc1cn2cc(-c3ccc4c(=O)n(C5CCN(C)CC5)cnc4c3)nc2c(C)n1` [Compound 302], for which the pIC50 in the assay on HTT mRNA (setting [1]), in the assay on HTT mRNA (setting [2]) and in the assay on HTT was 5.00 to 6.00 throughout. For the same compound, in the assay on HTT mRNA (RT-qPCR), the AC50 was 1000 to 10000 nM.

On to `Cc1cn2nc(-c3ccc4c(=O)n(C5CCN(C)CC5)cnc4c3)cc2c(C)n1` [Compound 303], for which the pIC50 in the assay with HTT mRNA (setting [1]), in the assay on HTT mRNA (setting [2]) and in the assay on HTT was 5.00 to 6.00 each time. Moreover, the AC50 in the assay with HTT mRNA (RT-qPCR) is 1000 to 10000 nM.

Consider `CC[C@@H]1C[C@H](n2ncc3cc(-c4cc(C)c5nc(C)cn5n4)ccc3c2=O)CCN1` [Compound 304], for which the figures for the pIC50 in the assay on HTT mRNA (setting [1]), in the assay with HTT mRNA (setting [2]) and in the assay on HTT were 5.00 to 6.00, 6.00 to 7.00 and 6.00 to 7.00, respectively. The AC50 in the assay on HTT mRNA (RT-qPCR) is 1000 to 10000 nM.

As for `Cc1cn2cc(-c3ccc4c(=O)n(C5CCNCC5)cnc4c3)cc(C(F)(F)F)c2n1` [Compound 306], the pIC50 with HTT mRNA (setting [1]) was 5.00 to 6.00; with HTT mRNA (setting [2]), 5.00 to 6.00; in the assay with HTT it was 6.00 to 7.00. Besides, the AC50 in the assay on HTT mRNA (RT-qPCR) lay within 1000 to 10000 nM.

As to `Cc1cn2cc(-c3ccc4c(=O)n(C5CCN(C)CC5)cnc4c3)ncc2n1` [Compound 308], the pIC50 with HTT mRNA (setting [1]), in the assay on HTT mRNA (setting [2]) and with HTT was 5.00 to 6.00 in each case. Moreover, in the assay with HTT mRNA (RT-qPCR), the AC50 is 1000 to 10000 nM.

With `Cc1cn2nc(-c3ccc4c(=O)n(C5CCN(C)CC5)ccc4c3)cc(C)c2n1` [Compound 310], the pIC50 in the assay on HTT mRNA (setting [1]), in the assay with HTT mRNA (setting [2]) and in the assay on HTT was 6.00 to 7.00 throughout. Also, the AC50 with HTT mRNA (RT-qPCR) was 100 to 1000 nM.

On to `Cc1cc(-c2cnc3c(=O)n(C4CCNCC4)cnc3c2)cc2cn(C)nc12` [Compound 311], for which the pIC50 in the assay with HTT mRNA (setting [1]), in the assay with HTT mRNA (setting [2]) and in the assay with HTT was 5.00 to 6.00 in each case. In the assay with HTT mRNA (RT-qPCR), the AC50 is 1000 to 10000 nM.

As to `Cc1cn2nc(-c3cc(F)c4c(=O)n(C5CCNC6(CC6)C5)ncc4c3)cc(C)c2n1` (stereo not shown) [Compound 312], the pIC50 in the assay on HTT mRNA (setting [1]), in the assay with HTT mRNA (setting [2]) and in the assay with HTT was over 7.00 throughout. Besides, the AC50 in the assay with HTT mRNA (RT-qPCR) is under 100 nM.

In the case of `Cn1cc2cc(-c3cc(F)c4c(=O)n(C5CCNCC5)cnc4c3)cc(F)c2n1` [Compound 314], the pIC50 in the assay on HTT mRNA (setting [1]), in the assay with HTT mRNA (setting [2]) and in the assay on HTT was 5.00 to 6.00 in each case. The concentration at half-maximal activity (AC50) in the assay on HTT mRNA (RT-qPCR) is 1000 to 10000 nM.

For `Cn1cc2cc(-c3cc(F)c4c(=O)n(C5CCNCC5)cnc4c3)c(F)cc2n1` [Compound 315], the negative logarithm of the IC50 (pIC50) with HTT mRNA (setting [1]), with HTT mRNA (setting [2]) and in the assay with HTT was 5.00 to 6.00 throughout. For the same compound, the concentration at half-maximal activity (AC50) with HTT mRNA (RT-qPCR) was 1000 to 10000 nM.

For `Cn1cc2cc(-c3cc(F)c4c(=O)n(C5CCNCC5)cnc4c3)cc(C#N)c2n1` [Compound 316], the pIC50 in the assay on HTT mRNA (setting [1]), with HTT mRNA (setting [2]) and in the assay with HTT was 6.00 to 7.00 each time. Also, the AC50 in the assay on HTT mRNA (RT-qPCR) was 100 to 1000 nM.

For `Cc1cn2cc(-c3cc(F)c4c(=O)n(C5CCNCC5)cnc4c3)cc(C)c2n1` [Compound 317], the negative logarithm of the IC50 (pIC50) with HTT mRNA (setting [1]), in the assay with HTT mRNA (setting [2]) and with HTT was 6.00 to 7.00 each time. In the assay with HTT mRNA (RT-qPCR), the concentration at half-maximal activity (AC50) was in the range of 100 to 1000 nM.

Consider `Cc1cn2nc(-c3cc(F)c4c(=O)n(C5CCNCC5)cnc4c3)cc2c(C)n1` [Compound 318], for which the pIC50 in the assay on HTT mRNA (setting [1]), with HTT mRNA (setting [2]) and in the assay on HTT was over 7.00 each time. Besides, in the assay on HTT mRNA (RT-qPCR), the AC50 is under 100 nM.

Turning to `Cc1cn2cc(-c3cc(F)c4c(=O)n(C5CCNCC5)cnc4c3)nc2c(C)n1` [Compound 319], the pIC50 in the assay on HTT mRNA (setting [1]), in the assay on HTT mRNA (setting [2]) and with HTT was 5.00 to 6.00 in each case. Further, the half-maximal activity concentration (AC50) in the assay on HTT mRNA (RT-qPCR) lay within 1000 to 10000 nM.

As to `COc1cc(-c2cc(F)c3c(=O)n(C4CCNCC4)cnc3c2)cnn1` [Compound 320], the negative-log IC50 (pIC50) with HTT mRNA (setting [1]), in the assay on HTT mRNA (setting [2]) and in the assay with HTT was under 5.00 each time. For the same compound, in the assay with HTT mRNA (RT-qPCR), the AC50 is over 10000 nM.

In the case of `Cc1cn2nc(-c3cc(F)c4c(=O)n(C5CCNCC5)ccc4c3)cc(C)c2n1` [Compound 322], the pIC50 in the assay with HTT mRNA (setting [1]), in the assay on HTT mRNA (setting [2]) and in the assay on HTT was over 7.00 each time. In addition, in the assay on HTT mRNA (RT-qPCR), the half-maximal activity concentration (AC50) was under 100 nM.

Consider `Cc1cn2cc(-c3cc(F)c4c(=O)n([C@H]5CCNC[C@H]5F)cnc4c3)cc(F)c2n1` [Compound 338], for which the results for the pIC50 with HTT mRNA (setting [1]), with HTT mRNA (setting [2]) and with HTT were 5.00 to 6.00, 6.00 to 7.00 and 5.00 to 6.00, respectively. Moreover, the AC50 in the assay on HTT mRNA (RT-qPCR) was 100 to 1000 nM.

On to `Cc1cn2cc(-c3cc(F)c4c(=O)n(C5CCNCC5(F)F)cnc4c3)cc(F)c2n1` (stereo not shown) [Compound 339], for which the pIC50 with HTT mRNA (setting [1]) is under 5.00; in the assay on HTT mRNA (setting [2]), 5.00 to 6.00; in the assay with HTT it was under 5.00. Besides, the AC50 in the assay on HTT mRNA (RT-qPCR) was in the range of 1000 to 10000 nM.

On to `Cc1cn2cc(-c3cc(F)c4c(=O)n(N5CCNCC5)cnc4c3)cc(F)c2n1` [Compound 340, 5-fluoro-7-{8-fluoro-2-methylimidazo[1,2-a]pyridin-6-yl}-3-(piperazin-1-yl)quinazolin-4-one], for which the pIC50 in the assay on HTT mRNA (setting [1]), in the assay on HTT mRNA (setting [2]) and in the assay on HTT was 6.00 to 7.00 each time. Moreover, the AC50 in the assay with HTT mRNA (RT-qPCR) was 100 to 1000 nM.

For `Cc1cn2cc(-c3cc(F)c4c(=O)n(C5=CCNCC5)cnc4c3)cc(F)c2n1` [Compound 342], the negative-log IC50 (pIC50) in the assay with HTT mRNA (setting [1]) is 6.00 to 7.00; with HTT mRNA (setting [2]) it was over 7.00; with HTT it was 6.00 to 7.00. The AC50 in the assay on HTT mRNA (RT-qPCR) was under 100 nM.
